In ChEMBL document CHEMBL1201862, “PubChem BioAssay data set” (2004):
Activity calls are given as the source filed them.

Columns and labels:
[1] = target: T1, Rac GTPase-activating protein 1 (Homo sapiens, UniProt Q9H0H5); assay: MgcRacGAP GTPase-activating activity inhibitors, confirmation, biochemical, ADP Hunter fluorescence, primary and confirmatory (AID 624330); format: functional
T1 sequence (Q9H0H5 whole entry): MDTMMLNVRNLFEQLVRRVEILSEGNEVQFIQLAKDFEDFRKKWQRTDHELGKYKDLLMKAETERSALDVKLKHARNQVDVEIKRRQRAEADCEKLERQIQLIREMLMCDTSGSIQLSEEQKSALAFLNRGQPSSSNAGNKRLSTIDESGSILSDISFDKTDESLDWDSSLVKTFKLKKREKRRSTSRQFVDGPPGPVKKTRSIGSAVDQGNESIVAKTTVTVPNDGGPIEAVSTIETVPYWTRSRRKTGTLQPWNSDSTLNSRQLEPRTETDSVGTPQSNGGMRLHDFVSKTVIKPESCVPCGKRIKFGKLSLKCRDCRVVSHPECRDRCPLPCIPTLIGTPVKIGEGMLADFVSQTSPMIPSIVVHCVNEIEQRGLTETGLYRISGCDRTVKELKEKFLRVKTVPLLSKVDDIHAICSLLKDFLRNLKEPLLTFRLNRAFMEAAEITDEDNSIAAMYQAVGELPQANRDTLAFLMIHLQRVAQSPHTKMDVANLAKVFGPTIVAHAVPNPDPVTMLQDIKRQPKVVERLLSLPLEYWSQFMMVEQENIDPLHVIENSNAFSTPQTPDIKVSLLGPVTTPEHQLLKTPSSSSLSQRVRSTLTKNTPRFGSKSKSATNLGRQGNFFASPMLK

Coagulation factor XII = target: T2, Coagulation factor XII (Homo sapiens, UniProt P00748); format: functional;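 also: activated factor XIIa alpha cleaving a fluorogenic AMC peptide substrate; inhibitor potency from loss of enzyme activity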
T2 sequence (P00748 whole entry): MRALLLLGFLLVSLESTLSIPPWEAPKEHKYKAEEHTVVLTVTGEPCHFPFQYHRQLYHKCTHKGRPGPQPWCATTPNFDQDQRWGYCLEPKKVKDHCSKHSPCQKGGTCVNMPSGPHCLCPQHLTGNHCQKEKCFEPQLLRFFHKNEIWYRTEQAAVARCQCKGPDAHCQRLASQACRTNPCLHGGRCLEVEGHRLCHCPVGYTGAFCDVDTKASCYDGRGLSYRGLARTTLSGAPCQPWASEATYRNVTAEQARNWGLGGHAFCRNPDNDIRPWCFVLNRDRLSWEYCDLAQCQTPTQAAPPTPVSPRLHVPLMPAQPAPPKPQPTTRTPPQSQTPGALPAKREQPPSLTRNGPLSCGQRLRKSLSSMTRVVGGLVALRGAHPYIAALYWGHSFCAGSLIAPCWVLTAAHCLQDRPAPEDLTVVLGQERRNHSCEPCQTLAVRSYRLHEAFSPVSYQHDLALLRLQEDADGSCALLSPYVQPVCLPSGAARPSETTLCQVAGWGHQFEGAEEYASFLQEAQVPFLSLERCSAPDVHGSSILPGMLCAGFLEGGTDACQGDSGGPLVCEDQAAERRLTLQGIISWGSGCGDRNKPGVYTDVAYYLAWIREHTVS

Troponin, cardiac muscle = Troponin, cardiac muscle (Homo sapiens, UniProt P19429+P45379+P63316); assay: Fluorescence-based biochemical high throughput dose response assay for activators of the calcium sensitivity of cardiac Regulated Thin Filaments (RTF). [Related pubchem assays (depositor defined):AID493008, AID493018, AID504382, AID504383]; format: protein-complex assay
[2] = target: Peroxisome proliferator-activated receptor gamma/Nuclear receptor coactivator 2 (Homo sapiens, UniProt P37231); assay: TR-FRET dose response biochemical High Throughput Screening assay for agonists of the steroid receptor coactivator 2 (SRC-2) recruitment by the peroxisome proliferator-activated receptor gamma (PPAR gamma): non-selective agonists. [Related pubchem assays: 1297, 1032 ]; format: functional
Sequence of Peroxisome proliferator-activated receptor gamma/Nuclear receptor coactivator 2 (P37231 whole entry): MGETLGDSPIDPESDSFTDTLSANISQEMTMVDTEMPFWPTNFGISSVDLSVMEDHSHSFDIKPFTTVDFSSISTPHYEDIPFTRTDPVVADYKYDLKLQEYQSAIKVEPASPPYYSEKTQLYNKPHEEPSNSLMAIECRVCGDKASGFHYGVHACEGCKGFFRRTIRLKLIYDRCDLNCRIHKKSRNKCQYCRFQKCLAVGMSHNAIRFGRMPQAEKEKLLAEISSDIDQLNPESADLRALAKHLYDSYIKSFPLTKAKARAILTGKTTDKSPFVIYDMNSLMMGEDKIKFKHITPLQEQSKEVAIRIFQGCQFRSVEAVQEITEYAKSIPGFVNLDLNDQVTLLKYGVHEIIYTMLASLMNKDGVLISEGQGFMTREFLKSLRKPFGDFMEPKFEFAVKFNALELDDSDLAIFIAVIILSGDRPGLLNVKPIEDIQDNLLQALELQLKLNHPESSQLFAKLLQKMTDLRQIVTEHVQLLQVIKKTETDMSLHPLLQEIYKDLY
Sequence of Peroxisome proliferator-activated receptor gamma/Nuclear receptor coactivator 2 (Q15596 whole entry, further chain): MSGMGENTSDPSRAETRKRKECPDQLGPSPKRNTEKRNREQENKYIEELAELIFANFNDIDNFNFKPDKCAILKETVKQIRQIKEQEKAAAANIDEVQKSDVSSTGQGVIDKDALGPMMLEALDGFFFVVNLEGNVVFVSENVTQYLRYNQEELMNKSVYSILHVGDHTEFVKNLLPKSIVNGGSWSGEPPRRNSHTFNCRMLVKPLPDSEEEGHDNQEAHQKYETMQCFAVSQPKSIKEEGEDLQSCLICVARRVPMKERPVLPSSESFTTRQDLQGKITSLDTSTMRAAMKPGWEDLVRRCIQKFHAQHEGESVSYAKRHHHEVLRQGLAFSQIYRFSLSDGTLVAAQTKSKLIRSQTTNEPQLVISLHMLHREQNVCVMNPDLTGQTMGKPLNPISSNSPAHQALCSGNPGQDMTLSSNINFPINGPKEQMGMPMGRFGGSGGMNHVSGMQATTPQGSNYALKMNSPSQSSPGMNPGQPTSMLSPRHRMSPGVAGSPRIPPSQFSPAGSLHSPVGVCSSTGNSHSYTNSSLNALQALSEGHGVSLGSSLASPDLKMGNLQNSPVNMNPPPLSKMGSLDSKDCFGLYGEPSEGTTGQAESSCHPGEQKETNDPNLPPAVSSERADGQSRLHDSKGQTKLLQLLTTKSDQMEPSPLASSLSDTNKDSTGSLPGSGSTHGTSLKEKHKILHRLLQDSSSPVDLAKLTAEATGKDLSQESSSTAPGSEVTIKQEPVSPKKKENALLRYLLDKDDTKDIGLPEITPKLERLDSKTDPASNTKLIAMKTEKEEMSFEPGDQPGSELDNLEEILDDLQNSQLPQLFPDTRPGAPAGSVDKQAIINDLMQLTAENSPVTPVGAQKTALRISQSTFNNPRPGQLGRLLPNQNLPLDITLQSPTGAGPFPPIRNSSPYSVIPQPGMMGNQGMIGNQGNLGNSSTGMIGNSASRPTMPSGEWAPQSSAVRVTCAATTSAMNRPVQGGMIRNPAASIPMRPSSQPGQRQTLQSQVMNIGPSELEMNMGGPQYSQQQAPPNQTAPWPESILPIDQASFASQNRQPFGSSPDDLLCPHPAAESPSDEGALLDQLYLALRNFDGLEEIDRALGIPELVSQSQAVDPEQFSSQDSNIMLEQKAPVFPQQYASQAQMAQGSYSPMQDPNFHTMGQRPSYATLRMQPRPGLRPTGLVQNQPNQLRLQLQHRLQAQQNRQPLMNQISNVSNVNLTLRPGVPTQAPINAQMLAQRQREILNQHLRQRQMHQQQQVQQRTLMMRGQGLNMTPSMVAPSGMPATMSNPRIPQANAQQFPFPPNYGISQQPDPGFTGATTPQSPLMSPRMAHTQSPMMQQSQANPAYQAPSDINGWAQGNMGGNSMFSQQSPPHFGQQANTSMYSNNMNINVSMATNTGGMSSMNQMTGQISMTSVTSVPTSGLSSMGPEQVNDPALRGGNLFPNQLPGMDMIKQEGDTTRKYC

[3] = target: Peroxisome proliferator-activated receptor gamma/Nuclear receptor coactivator 3 (Homo sapiens, UniProt P37231); assay: TR-FRET dose response biochemical High Throughput Screening assay for agonists of the steroid receptor coactivator 3 (SRC-3) recruitment by the peroxisome proliferator-activated receptor gamma (PPAR gamma): non-selective agonists. [Related pubchem assays: 1301 (Confirmation screen.), 1048 (Primary screen.)]; format: functional
[4] = target: Peroxisome proliferator-activated receptor gamma/Nuclear receptor coactivator 1 (Homo sapiens, UniProt P37231); assay: TR-FRET dose response biochemical High Throughput Screening assay for agonists of the steroid receptor coactivator 1 (SRC-1) recruitment by the peroxisome proliferator-activated receptor gamma (PPAR gamma): non-selective agonists. [Related pubchem assays (depositor defined):AID1300, AID1808, AID504735, AID631]; format: protein assay
Sequence of Peroxisome proliferator-activated receptor gamma/Nuclear receptor coactivator 1 (P37231 whole entry): as the sequence (P37231 whole entry) above
Sequence of Peroxisome proliferator-activated receptor gamma/Nuclear receptor coactivator 1 (Q15788 whole entry, further chain): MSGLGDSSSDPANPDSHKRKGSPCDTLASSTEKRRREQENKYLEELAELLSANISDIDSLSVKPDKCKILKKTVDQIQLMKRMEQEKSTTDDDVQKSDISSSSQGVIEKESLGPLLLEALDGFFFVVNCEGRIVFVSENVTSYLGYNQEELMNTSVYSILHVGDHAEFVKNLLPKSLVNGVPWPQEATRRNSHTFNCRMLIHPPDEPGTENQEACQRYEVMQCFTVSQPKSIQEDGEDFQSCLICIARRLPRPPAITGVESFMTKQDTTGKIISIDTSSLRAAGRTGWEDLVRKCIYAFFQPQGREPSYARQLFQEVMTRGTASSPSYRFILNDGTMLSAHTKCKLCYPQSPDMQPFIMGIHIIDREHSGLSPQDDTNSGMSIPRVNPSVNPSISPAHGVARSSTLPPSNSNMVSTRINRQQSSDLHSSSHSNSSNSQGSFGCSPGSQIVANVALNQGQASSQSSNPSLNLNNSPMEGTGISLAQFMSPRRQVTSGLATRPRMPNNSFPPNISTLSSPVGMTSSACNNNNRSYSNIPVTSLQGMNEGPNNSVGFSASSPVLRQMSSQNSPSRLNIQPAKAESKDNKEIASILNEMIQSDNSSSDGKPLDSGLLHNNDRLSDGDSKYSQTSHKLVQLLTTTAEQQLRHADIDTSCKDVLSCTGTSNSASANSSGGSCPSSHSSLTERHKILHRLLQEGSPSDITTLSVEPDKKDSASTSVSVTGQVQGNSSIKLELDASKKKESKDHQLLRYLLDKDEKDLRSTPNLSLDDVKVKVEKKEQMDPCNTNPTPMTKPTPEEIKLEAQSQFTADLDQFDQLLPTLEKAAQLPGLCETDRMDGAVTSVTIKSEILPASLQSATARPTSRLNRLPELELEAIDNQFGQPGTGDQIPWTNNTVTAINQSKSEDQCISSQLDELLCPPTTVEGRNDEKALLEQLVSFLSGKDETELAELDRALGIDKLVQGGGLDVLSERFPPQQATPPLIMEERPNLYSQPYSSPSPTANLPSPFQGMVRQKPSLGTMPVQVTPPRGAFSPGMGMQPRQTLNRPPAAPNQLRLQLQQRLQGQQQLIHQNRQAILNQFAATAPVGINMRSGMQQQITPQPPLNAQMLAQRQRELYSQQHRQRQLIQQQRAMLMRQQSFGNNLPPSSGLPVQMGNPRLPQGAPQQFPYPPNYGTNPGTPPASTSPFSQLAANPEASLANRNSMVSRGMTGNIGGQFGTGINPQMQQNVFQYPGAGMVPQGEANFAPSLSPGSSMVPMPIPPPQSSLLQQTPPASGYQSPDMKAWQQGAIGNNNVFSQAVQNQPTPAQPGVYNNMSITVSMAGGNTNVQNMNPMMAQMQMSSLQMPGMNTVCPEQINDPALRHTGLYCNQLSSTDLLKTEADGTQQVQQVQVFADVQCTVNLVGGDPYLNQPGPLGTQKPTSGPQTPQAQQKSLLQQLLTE

Hexokinase HKDC1 = target: T3, Hexokinase HKDC1 (Homo sapiens, UniProt Q2TB90); assay: HKDC1 hexokinase activators, dose response, biochemical, W721R variant (AID 504730); format: functional
T3 sequence (Q2TB90 whole entry): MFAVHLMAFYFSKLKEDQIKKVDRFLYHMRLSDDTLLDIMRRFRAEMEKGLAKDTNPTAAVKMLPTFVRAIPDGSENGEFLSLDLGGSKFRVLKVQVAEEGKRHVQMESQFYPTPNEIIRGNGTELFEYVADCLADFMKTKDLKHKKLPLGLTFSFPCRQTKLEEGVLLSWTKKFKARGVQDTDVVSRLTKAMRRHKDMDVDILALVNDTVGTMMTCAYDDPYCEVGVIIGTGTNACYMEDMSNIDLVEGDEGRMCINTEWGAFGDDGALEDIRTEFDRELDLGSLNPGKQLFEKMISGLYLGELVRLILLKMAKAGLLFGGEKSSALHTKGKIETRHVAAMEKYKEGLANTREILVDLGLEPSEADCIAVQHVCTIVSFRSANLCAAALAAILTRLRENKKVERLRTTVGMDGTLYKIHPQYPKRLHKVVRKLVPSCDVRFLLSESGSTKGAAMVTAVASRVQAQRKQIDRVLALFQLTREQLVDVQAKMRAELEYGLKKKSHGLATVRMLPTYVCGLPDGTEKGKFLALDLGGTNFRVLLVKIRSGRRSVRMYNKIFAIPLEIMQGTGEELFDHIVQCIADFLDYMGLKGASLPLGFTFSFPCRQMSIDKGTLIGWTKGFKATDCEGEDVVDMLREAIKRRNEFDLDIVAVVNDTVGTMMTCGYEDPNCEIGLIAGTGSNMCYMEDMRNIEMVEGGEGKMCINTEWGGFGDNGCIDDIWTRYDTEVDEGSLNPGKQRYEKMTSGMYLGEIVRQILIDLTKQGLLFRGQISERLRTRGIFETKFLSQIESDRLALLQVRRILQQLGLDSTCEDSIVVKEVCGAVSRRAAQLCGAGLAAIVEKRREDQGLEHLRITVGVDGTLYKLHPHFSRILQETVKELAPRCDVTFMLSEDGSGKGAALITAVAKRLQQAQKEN

[5] = Luminescence Cell-Based Dose Retest to Confirm Inhibitors of Cancer Stem Cells. [Related pubchem assays (depositor defined):AID2717, AID2721]; format: functional, Homo sapiens; conditions: Homo sapiens
Hexokinase-1 = target: T4, Hexokinase-1 (Homo sapiens, UniProt P19367); assay: hexokinase 1 activators, dose response, selectivity assay for HKDC1 activator project, biochemical (AID 504762); format: functional
T4 sequence (P19367 whole entry): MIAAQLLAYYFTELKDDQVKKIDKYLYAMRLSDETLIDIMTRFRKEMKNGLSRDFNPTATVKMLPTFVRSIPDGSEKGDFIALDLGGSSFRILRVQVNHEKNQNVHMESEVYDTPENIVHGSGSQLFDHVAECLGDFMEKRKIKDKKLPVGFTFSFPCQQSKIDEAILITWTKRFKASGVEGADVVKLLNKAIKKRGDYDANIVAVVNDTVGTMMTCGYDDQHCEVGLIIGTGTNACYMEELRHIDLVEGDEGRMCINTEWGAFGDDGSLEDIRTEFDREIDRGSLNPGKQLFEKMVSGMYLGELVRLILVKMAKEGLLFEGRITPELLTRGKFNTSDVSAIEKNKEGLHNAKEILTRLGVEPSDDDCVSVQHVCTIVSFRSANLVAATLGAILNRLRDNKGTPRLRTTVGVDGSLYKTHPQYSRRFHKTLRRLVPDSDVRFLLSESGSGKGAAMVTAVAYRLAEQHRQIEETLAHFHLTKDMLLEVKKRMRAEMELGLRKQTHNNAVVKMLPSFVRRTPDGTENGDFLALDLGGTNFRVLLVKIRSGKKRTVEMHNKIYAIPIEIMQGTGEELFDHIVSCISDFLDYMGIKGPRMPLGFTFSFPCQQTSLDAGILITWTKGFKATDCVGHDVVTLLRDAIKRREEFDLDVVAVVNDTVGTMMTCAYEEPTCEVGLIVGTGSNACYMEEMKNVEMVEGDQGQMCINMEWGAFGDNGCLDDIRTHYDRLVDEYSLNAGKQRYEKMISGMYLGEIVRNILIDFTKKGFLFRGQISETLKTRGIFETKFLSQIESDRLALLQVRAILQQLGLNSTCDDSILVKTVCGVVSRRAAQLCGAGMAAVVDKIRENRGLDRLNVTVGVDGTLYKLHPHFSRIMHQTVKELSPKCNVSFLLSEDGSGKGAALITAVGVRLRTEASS

INS1 = assay: beta cell apoptosis inhibitors, cytokine rescue, dose response, luminescence, retest (AID 449756); format: functional, cell-based; conditions: Rattus norvegicus;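 also: cell death triggered by IL-1 beta plus TNF-alpha plus IFN-gamma mixture; protective hits raise ATP signal compared with cytokine alone wells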
[6] = target: T5, Endoribonuclease toxin MazF (Escherichia coli K-12, UniProt P0AE70); assay: fluorescent RNA oligo signal without MazF, dose response, counter-screen for MazEF activator project, biochemical, fluorescence, single-stranded RNase substrate (AID 588502); format: functional
T5 sequence (P0AE70 whole entry): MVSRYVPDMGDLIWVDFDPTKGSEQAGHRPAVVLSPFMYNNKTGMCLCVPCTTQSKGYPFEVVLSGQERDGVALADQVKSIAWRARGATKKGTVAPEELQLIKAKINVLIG

[7] = inhibitors of clade B AD8 Env fusion, dose response, cell-based, cherry-pick (AID 652062); format: functional;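 also: luciferase signal from cell-cell fusion driven by HIV-1 clade B AD8 Env; potency is for inhibitors of fusion seen as a drop in luminescence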
X-box-binding protein 1 = X-box-binding protein 1 (Homo sapiens, UniProt P17861); format: functional, Cricetulus griseus;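 also: confirmatory dose-response counter-screen serving a CHOP assay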
Sequence of X-box-binding protein 1 (P17861 whole entry, the tested form may be a part): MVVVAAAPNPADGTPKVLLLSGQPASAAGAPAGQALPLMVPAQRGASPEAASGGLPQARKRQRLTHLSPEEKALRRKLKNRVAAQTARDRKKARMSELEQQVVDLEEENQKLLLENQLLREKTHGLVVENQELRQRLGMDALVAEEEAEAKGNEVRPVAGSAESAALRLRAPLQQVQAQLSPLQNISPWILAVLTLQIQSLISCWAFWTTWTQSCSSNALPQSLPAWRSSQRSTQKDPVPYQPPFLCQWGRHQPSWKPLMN

[8] = off-target signal loss in HeLa-CEM21 co-culture – HeLa F-luc CTL cells, cherry-picked, counter-screen for HIV-1 Env fusion inhibitor project, dose response (AID 652040); format: functional, cell-based;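 also: potency for signal decrease marking cytotoxic or nonspecific inhibition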
[9] = inhibitors of HIV Env-driven cell fusion, dose response, cherry-pick (AID 652057); format: functional, cell-based
[10] = target: T5, Endoribonuclease toxin MazF; assay: MazF toxin RNase activators, dose response, biochemical, fluorescence, single-stranded RNA substrate, uHTS hits (AID 588481); format: functional
[11] = target: DNA damage-inducible transcript 3 protein (Mus musculus, UniProt P35639); format: functional, Cricetulus griseus
Sequence of DNA damage-inducible transcript 3 protein (P35639 whole entry, the tested form may be a part): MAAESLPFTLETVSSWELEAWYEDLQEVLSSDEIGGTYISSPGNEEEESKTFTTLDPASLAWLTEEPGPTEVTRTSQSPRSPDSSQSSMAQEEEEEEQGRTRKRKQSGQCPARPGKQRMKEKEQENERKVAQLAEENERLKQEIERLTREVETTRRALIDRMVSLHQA

[12] = ZM109 Env clade C HIV-1 fusion inhibitors, dose response, HeLa effector, CEM target cells, luciferase, cherry-pick (AID 652058); format: functional, cell-based
[13] = target: T6, Heat shock factor protein 1 (Mus musculus, UniProt P38532); assay: inhibition of MG132-induced HSE-luciferase signal, confirmation, cell-based, NIH3T3, luminescence, dose retest (AID 2382); format: functional;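 also: NIH3T3 fibroblasts with HSF1-driven luciferase reporter stressed by proteasome inhibitor MG132; luminescence from HSF1-driven luciferase expression after 8 hours of MG132 stress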
T6 sequence (P38532 whole entry): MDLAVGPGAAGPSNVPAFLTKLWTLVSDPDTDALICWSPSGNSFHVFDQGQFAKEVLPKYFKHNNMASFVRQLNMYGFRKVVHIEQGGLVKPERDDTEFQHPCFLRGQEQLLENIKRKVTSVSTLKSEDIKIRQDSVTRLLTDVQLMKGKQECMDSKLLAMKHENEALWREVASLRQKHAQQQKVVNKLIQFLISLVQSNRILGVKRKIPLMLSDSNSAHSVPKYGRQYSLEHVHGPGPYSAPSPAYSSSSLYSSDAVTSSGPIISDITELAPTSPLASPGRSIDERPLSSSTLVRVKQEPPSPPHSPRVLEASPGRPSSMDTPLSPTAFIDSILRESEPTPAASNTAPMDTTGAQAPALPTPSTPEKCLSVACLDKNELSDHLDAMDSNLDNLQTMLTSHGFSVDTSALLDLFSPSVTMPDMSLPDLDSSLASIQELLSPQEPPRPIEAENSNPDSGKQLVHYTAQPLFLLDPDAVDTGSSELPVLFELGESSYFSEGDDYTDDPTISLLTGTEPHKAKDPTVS

[14] = target: Luciferin 4-monooxygenase (Photinus pyralis, UniProt P08659); assay: firefly luciferase enzyme inhibitors, dose response, biochemical, luminescence (AID 1891)
[15] = target: DNA dC->dU-editing enzyme APOBEC-3G (Homo sapiens, UniProt Q9HC16); assay: Dose Response confirmation of small molecule APOBEC3G DNA Deaminase Inhibitors via a fluorescence-based single-stranded DNA deaminase assay. [Related pubchem assays (depositor defined):AID493012, AID493028]; format: functional
Cytochrome P450 2C9 = Cytochrome P450 2C9 (Homo sapiens, UniProt P11712)
Sequence of Cytochrome P450 2C9 (P11712 whole entry): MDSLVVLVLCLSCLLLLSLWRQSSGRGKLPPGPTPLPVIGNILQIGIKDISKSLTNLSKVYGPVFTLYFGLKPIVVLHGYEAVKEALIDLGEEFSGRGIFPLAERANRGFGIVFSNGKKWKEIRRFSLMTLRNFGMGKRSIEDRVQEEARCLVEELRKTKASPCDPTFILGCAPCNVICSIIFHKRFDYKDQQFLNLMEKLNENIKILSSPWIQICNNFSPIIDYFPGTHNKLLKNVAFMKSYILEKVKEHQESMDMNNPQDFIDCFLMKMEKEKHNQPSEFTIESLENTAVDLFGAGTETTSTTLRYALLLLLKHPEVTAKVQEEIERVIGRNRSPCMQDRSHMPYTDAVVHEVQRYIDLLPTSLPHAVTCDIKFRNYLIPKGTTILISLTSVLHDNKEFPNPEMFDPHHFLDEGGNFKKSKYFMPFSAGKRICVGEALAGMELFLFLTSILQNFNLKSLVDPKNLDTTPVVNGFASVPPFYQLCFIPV

## COC(=O)c1ccc(NC(=S)Nc2ccc(O)cc2)cc1
[1]
  IC50: 43.1 µM (active)
Coagulation factor XII
  IC50: > 50 µM (inactive)

## O=C(CNCc1cccs1)Nc1ccc(S(=O)(=O)N2CCCCC2)cc1
Troponin, cardiac muscle
  EC50: > 71.5 µM (inactive)

## CCN1CCCC1CNC(=O)CSc1cc(=O)n(CC)c2ccccc12 (configuration not stated)
[2]
  EC50: > 79.4 µM (not active)
[3]
  EC50: > 79.4 µM (not active)
[4]
  EC50: > 79.4 µM (inactive)

## Cc1nc2c3cc(F)ccc3n(Cc3ccccc3)c2s1
Hexokinase HKDC1
  EC50: 39.2 µM (inactive)
[5]
  AC50: 83.6 µM (active)
Hexokinase-1
  EC50: 57.5 µM (inactive)
INS1
  AC50: > 260 µM (inactive)

## Cc1cccc2cc3c(N)c(C#N)sc3nc12
[6]
  EC50: 43.1 µM (inactive)
[7]
  AC50: 5.1 µM (active)
X-box-binding protein 1
  Absolute IC50 (XBP1): 10 µM
[8]
  AC50: 1.94 µM (active)
[9]
  AC50: 2.64 µM (active)
[10]
  EC50: > 99 µM (inactive)
[11]
  Absolute IC50 (CHOP): 10 µM
[12]
  AC50: 6.95 µM (active)
[13]
  EC50: > 195 µM (not active)

## Cc1ccc(OCc2nnc(SCC(=O)O)n2N)cc1
Coagulation factor XII
  IC50: > 50 µM (inactive)

## C=CCn1c(-c2cc(Cl)ccc2OC)n[nH]c1=S
[2]
  EC50: 28.9 µM (not active)
[14]
  EC50: > 112 µM (not active)
[3]
  EC50: > 79.4 µM (not active)
[15]
  IC50: 8.82 µM (active)
[4]
  EC50: 21.4 µM (inactive)

## CCN1C(=O)/C(=C/C=C2/SCCN2C)SC1=S
Cytochrome P450 2C9
  AC50: 4.47 µM (inconclusive)
Troponin, cardiac muscle
  EC50: 1.54 µM (active)
